Test systems include HCT-15; NCI-H226; HOP-62; HL-60; IGROV-1; K562; A549; NCI-H460; UACC-62; RPMI-8226; HCT-116; COLO 205; Malme-3M; U-251; SW-620; TK-10; SR.
Experiment in all cases: NCI-60 cell line screen, 48 h

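In this assay, cells in 96-well plates receive the compound at five concentrations for 48 hours. Endpoints are linearly interpolated between the surrounding concentrations. Here, GI50 denotes the concentration required for 50% inhibition of growth.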 Calls of active or inactive are those of the source. No stated cut-off is given here; in the data, active = GI50 up to about 1.1 µM and inactive = higher.

On to `CC(C)CCC[C@@H](C)C1CCC2[C@@H]3CC=C4C[C@@H](C(=O)NCC[N+](C)(C)CCCS(=O)(=O)[O-])CC[C@]4(C)C3CC[C@@]21C` (stereo not given in full), for which the GI50 is 16.3 µM in the experiment with HCT-15; 21.2 µM (inactive) with NCI-H226; 24 µM (inactive) in the experiment with HOP-62; 13.4 µM (inactive) in the experiment on HL-60; 17.3 µM (inactive) with IGROV-1; 14.2 µM (inactive) with K562. Besides, the GI50 with A549 is 17.3 µM (inactive); with NCI-H460, 15.7 µM (inactive); with UACC-62, 20.1 µM (inactive); with RPMI-8226, 20.4 µM (inactive); in the experiment on HCT-116, 16.8 µM (inactive); in the experiment on COLO 205, 17.5 µM (inactive). Also, the GI50 in the experiment with Malme-3M was 18.9 µM (inactive); with U-251 it was 17.3 µM (inactive); in the experiment on SW-620, 16.6 µM (inactive).
Turning to `BrC12C3C4C5C(C(C43)C13OCCO3)C52` (stereo not given), the GI50 with HOP-62, with HL-60, in the experiment with IGROV-1, in the experiment with K562, in the experiment on A549 and in the experiment on NCI-H460 was > 100 µM (inactive) throughout. In addition, the GI50 in the experiment with TK-10, in the experiment on RPMI-8226, in the experiment with HCT-116, in the experiment with COLO 205, in the experiment with Malme-3M and in the experiment on U-251 was > 100 µM (inactive) throughout. Besides, the GI50 in the experiment with SW-620 was > 100 µM (inactive).
As for `N#[N+][c-]1c(-c2ccccc2)n[nH]c1=O`, the GI50 in the experiment on HCT-15 is more than 100 µM; in the experiment on NCI-H226 it was > 100 µM (inactive); in the experiment on HL-60, > 100 µM (inactive); in the experiment on IGROV-1, > 100 µM (inactive); in the experiment on K562, 97.9 µM (inactive); in the experiment with A549, > 100 µM (inactive). In addition, the GI50 in the experiment on NCI-H460, with TK-10, with SR, in the experiment on RPMI-8226, in the experiment with HCT-116 and in the experiment with COLO 205 was > 100 µM (inactive) in each case. Further, the GI50 in the experiment on Malme-3M, in the experiment on U-251 and in the experiment with SW-620 was > 100 µM (inactive) in each case.
For `COC(=O)/C(C#N)=C1\CCC(OC)N1C` (stereo not given), the GI50 was more than 100 µM in the experiment on HCT-15; > 100 µM (inactive) in the experiment with NCI-H226; > 100 µM (inactive) in the experiment with HOP-62; > 100 µM (inactive) in the experiment on HL-60; > 100 µM (inactive) with IGROV-1; > 100 µM (inactive) in the experiment with K562. The GI50 in the experiment on A549, in the experiment with NCI-H460, in the experiment with UACC-62, in the experiment on TK-10, with RPMI-8226 and with HCT-116 was > 100 µM (inactive) each time. For the same molecule, the GI50 with COLO 205, in the experiment on Malme-3M, with U-251 and with SW-620 was > 100 µM (inactive) throughout.
As to `NC1=NS(=O)(=O)N=C(N)C1=Cc1ccc([N+](=O)[O-])o1`, the GI50 with HCT-15 was 16.8 µM; in the experiment on NCI-H226, 30.8 µM (inactive); with HL-60, 5.51 µM (inactive); with IGROV-1 it was 18.2 µM (inactive); in the experiment on K562, 6.01 µM (inactive); in the experiment with A549, 52 µM (inactive). The GI50 is 17.9 µM (inactive) with NCI-H460; 16.4 µM (inactive) in the experiment with UACC-62; 18.6 µM (inactive) in the experiment with TK-10; 3.73 µM (inactive) in the experiment on SR; 17.1 µM (inactive) in the experiment with RPMI-8226; 15.4 µM (inactive) in the experiment with HCT-116. Besides, the GI50 in the experiment with COLO 205 is 15.7 µM (inactive); in the experiment on Malme-3M, 16 µM (inactive); in the experiment on U-251, 50.8 µM (inactive); in the experiment with SW-620, 18.3 µM (inactive).
Consider `Cc1ccc2nc(NC(=O)C(=O)C(C#N)c3nc4ccccc4s3)sc2c1` (stereo not given), for which the GI50 is 32 µM in the experiment on HCT-15; 25.1 µM (inactive) in the experiment with NCI-H226; 14.5 µM (inactive) in the experiment on HOP-62; 17.8 µM (inactive) in the experiment with IGROV-1; 29.2 µM (inactive) in the experiment with K562; 34 µM (inactive) in the experiment on NCI-H460. Further, the GI50 in the experiment on UACC-62 is 30.7 µM (inactive); in the experiment on TK-10 it was 30.8 µM (inactive); in the experiment with RPMI-8226 it was 28.3 µM (inactive); in the experiment on HCT-116, 38.4 µM (inactive); in the experiment on COLO 205, 18 µM (inactive); in the experiment on Malme-3M, 43.7 µM (inactive). The GI50 is 33.7 µM (inactive) in the experiment with U-251 and 55.1 µM (inactive) in the experiment with SW-620.
As for `CC(=O)O[C@@H]1CC(C)C2CC2C2=C(C(O)OC2O)[C@@H]1C(C)CCC=C(C)C` (stereo not given in full), the GI50 was 22 µM in the experiment with HCT-15; 20.1 µM (inactive) in the experiment on NCI-H226; 26.9 µM (inactive) in the experiment on HOP-62; 20.4 µM (inactive) with HL-60; 25.1 µM (inactive) with IGROV-1; 23.9 µM (inactive) in the experiment with K562. The GI50 in the experiment on A549 was 22.7 µM (inactive); with NCI-H460, 20 µM (inactive); in the experiment on UACC-62, 26.3 µM (inactive); in the experiment on TK-10, 33.3 µM (inactive); with RPMI-8226, 25.2 µM (inactive); with HCT-116, 18.4 µM (inactive). Further, the GI50 in the experiment with COLO 205 was 18.2 µM (inactive); in the experiment on Malme-3M, 27.8 µM (inactive); with U-251, 19.4 µM (inactive); with SW-620 it was 23 µM (inactive).
Regarding `CCOC(=O)CCC(=O)C1c2cccc(O)c2C(=O)c2c(O)cccc21`, the GI50 with HOP-62 is 1.73 µM (inactive); in the experiment with HL-60, 0.223 µM (active); with IGROV-1 it was 1.87 µM (inactive); in the experiment on K562, 0.37 µM (active); in the experiment on A549, 0.61 µM (active); in the experiment on NCI-H460, 0.26 µM (active). For the same molecule, the GI50 is 0.395 µM (active) with UACC-62; 2.38 µM (inactive) in the experiment with TK-10; 2.24 µM (inactive) in the experiment on SR; 1.31 µM (inactive) in the experiment with HCT-116; 2.01 µM (inactive) in the experiment on COLO 205; 1.78 µM (inactive) with Malme-3M. The GI50 in the experiment on U-251 is 0.301 µM (active); in the experiment on SW-620, 0.6 µM (active).
Regarding `NCCSc1cc(O)c2c(c1N)C(=O)c1ccccc1C2=O`, the GI50 in the experiment with HCT-15 was 29.3 µM; with HOP-62 it was > 100 µM (inactive); with HL-60, 20.8 µM (inactive); with IGROV-1, 18.8 µM (inactive); with K562, 22.2 µM (inactive); in the experiment with A549, > 100 µM (inactive). Moreover, the GI50 in the experiment on NCI-H460 was 36 µM (inactive); with UACC-62, 36.7 µM (inactive); in the experiment on TK-10 it was > 100 µM (inactive); in the experiment with SR, 20.8 µM (inactive); in the experiment on HCT-116, 34 µM (inactive); in the experiment on Malme-3M it was 26 µM (inactive). For the same molecule, the values for the GI50 with U-251 and with SW-620 were 58.7 µM (inactive) and 33.1 µM (inactive), respectively.
In the case of `COC(=O)C1=Cc2cc(OC)c(OC)c(OC)c2[C@H](c2cc(OC)c(OC)c(OC)c2)C1C(=O)OC` (stereo not given in full), the GI50 is more than 100 µM with HCT-15; > 100 µM (inactive) with NCI-H226; > 100 µM (inactive) in the experiment with HOP-62; > 100 µM (inactive) with HL-60; > 100 µM (inactive) in the experiment on IGROV-1; > 100 µM (inactive) in the experiment on K562. In addition, the GI50 in the experiment with A549, in the experiment on NCI-H460, with UACC-62, in the experiment with TK-10, with RPMI-8226 and in the experiment on HCT-116 was > 100 µM (inactive) each time. The GI50 in the experiment with COLO 205, in the experiment on Malme-3M, in the experiment on U-251 and with SW-620 was > 100 µM (inactive) throughout.
Turning to `O=C1CC2=CCCC2O1` (stereo not given), the GI50 in the experiment with HCT-15 is more than 100 µM; with HOP-62, > 100 µM (inactive); in the experiment on HL-60 it was > 100 µM (inactive); with IGROV-1, > 100 µM (inactive); in the experiment with K562 it was > 100 µM (inactive); in the experiment with A549, > 100 µM (inactive). For the same molecule, the GI50 with NCI-H460, in the experiment on UACC-62, in the experiment with TK-10, in the experiment with RPMI-8226, in the experiment on HCT-116 and in the experiment with COLO 205 was > 100 µM (inactive) throughout. The GI50 in the experiment with Malme-3M, in the experiment on U-251 and in the experiment with SW-620 was > 100 µM (inactive) each time.
As to `CN(C)CC1CC/C(=C\c2ccc(Cl)cc2)C1=O` (stereo not given), the GI50 is 3.18 µM in the experiment with HCT-15; 19.9 µM (inactive) in the experiment on NCI-H226; 22.4 µM (inactive) in the experiment on HOP-62; 0.757 µM (active) in the experiment on HL-60; 14.6 µM (inactive) in the experiment on IGROV-1; 0.908 µM (active) in the experiment with K562. In addition, the GI50 was 20.4 µM (inactive) in the experiment with A549; 17.4 µM (inactive) in the experiment on NCI-H460; 7.5 µM (inactive) in the experiment with UACC-62; 9.86 µM (inactive) with TK-10; 0.441 µM (active) in the experiment on RPMI-8226; 3.31 µM (inactive) in the experiment on HCT-116. In addition, the GI50 with COLO 205 is 4.19 µM (inactive); with Malme-3M it was 7.11 µM (inactive); in the experiment on U-251 it was 7 µM (inactive); in the experiment with SW-620 it was 2.61 µM (inactive).
In the case of `CC1CC2C3CCC4=CC(=O)C=CC4(C)C3(F)C(O)CC2(C)C1(O)C(=O)CO.Cc1nnc(NS(=O)(=O)c2ccc(/N=N/c3cc(/N=N/c4ccc(S(=O)(=O)Nc5nnc(C)s5)cc4)c4c(NC(=O)C(Cl)Cl)cccc4c3OC(=O)C(Cl)Cl)cc2)s1`, the GI50 is 35.5 µM in the experiment on HCT-15; 88.5 µM (inactive) with HOP-62; 9.95 µM (inactive) in the experiment on HL-60; 24.5 µM (inactive) with IGROV-1; 22.9 µM (inactive) in the experiment on K562; 11.6 µM (inactive) in the experiment on A549. Besides, the GI50 was 21.5 µM (inactive) with NCI-H460; 33 µM (inactive) with UACC-62; 43.3 µM (inactive) in the experiment on TK-10; < 0.01 µM (active) in the experiment on RPMI-8226; 15 µM (inactive) with HCT-116; 12.1 µM (inactive) with COLO 205. For the same molecule, the GI50 with Malme-3M is 26.5 µM (inactive); in the experiment with U-251, 37.1 µM (inactive); in the experiment with SW-620, 22.6 µM (inactive).

Values taken from ChEMBL document CHEMBL1201862, “PubChem BioAssay data set” (2004).
